What all share (assay): relative viability (nuclei count vs DMSO), 5 days (fraction); higher = more cells survive
Compound in the test “NVP-TAE684 + Pictilisib”: COc1cc(N2CCC(N3CCN(C)CC3)CC2)ccc1Nc1ncc(Cl)c(Nc2ccccc2S(=O)(=O)C(C)C)n1 [NVP-TAE684] + CS(=O)(=O)N1CCN(Cc2cc3nc(-c4cccc5[nH]ncc45)nc(N4CCOCC4)c3s2)CC1 [Pictilisib] (partner 1 µM)
The method, boiled down: (§1)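 After 5 days of treatment, lung cancer cells in 1536-well plates were fixed and stained in a single step (final 0.05% Triton X-100, 1% formaldehyde, 1 ug/ml Hoechst) and their nuclei counted on 4× images. Treatment had been applied by pin tool the day after seeding as one drug alone or as a fixed anchor-drug dose with five library-drug doses (not always all listed) in √10 steps. Relative viability is the nuclei count of treated wells divided by that of vehicle wells, and values are medians of duplicate plates.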

Compound in test [1]: C1=CC=C2C(=C1)N=C(S2)C(C#N)C3=NC(=NC=C3)NCCC4=CN=CC=C4 + COc1cc2c(Oc3ccc(NC(=O)C4(C(=O)Nc5ccc(F)cc5)CC4)cc3F)ccnc2cc1OCCCN1CCOCC1 [Foretinib] (partner 0.25 µM)
The essentials: as §1

Compound in the test “CUDC-101 + Trametinib”: C#Cc1cccc(Nc2ncnc3cc(OC)c(OCCCCCCC(=O)NO)cc23)c1 [CUDC-101] + CC(=O)Nc1cccc(-n2c(=O)n(C3CC3)c(=O)c3c(Nc4ccc(I)cc4F)n(C)c(=O)c(C)c32)c1 [Trametinib] (partner 0.02 µM)
The method, boiled down: as §1

Compound in the test “NVP-TAE684 + Vorinostat”: COc1cc(N2CCC(N3CCN(C)CC3)CC2)ccc1Nc1ncc(Cl)c(Nc2ccccc2S(=O)(=O)C(C)C)n1 [NVP-TAE684] + O=C(CCCCCCC(=O)Nc1ccccc1)NO [Vorinostat] (partner 1 µM)
The essentials: as §1

Compound in the test “NVP-TAE684 + Alpelisib”: COc1cc(N2CCC(N3CCN(C)CC3)CC2)ccc1Nc1ncc(Cl)c(Nc2ccccc2S(=O)(=O)C(C)C)n1 [NVP-TAE684] + Cc1nc(NC(=O)N2CCC[C@H]2C(N)=O)sc1-c1ccnc(C(C)(C)C(F)(F)F)c1 [Alpelisib] (partner 2 µM)
The method, boiled down:
as §1

As for UMC-11, the relative viability amounted to 0.979 with NVP-TAE684 + Pictilisib (first compound 0.2 µM); 0.586 with NVP-TAE684 + Pictilisib (first compound 2 µM); 0.908 in test [1] (first compound 0.005 µM); 0.993 in test [1] (first compound 0.01581 µM); 0.999 in test [1] (first compound 0.05 µM); 1.01 in test [1] (first compound 0.1581 µM). Also, the relative viability worked out at 1.05 in test [1] (first compound 0.5 µM); 0.727 with CUDC-101 + Trametinib (first compound 0.01 µM); 0.761 in the test with CUDC-101 + Trametinib (first compound 0.03162 µM); 0.578 in the test with CUDC-101 + Trametinib (first compound 0.1 µM); 0.399 in the test with CUDC-101 + Trametinib (first compound 0.3162 µM); 0.127 with CUDC-101 + Trametinib (first compound 1 µM). The relative viability with NVP-TAE684 + Vorinostat (first compound 0.2 µM) was determined as 0.385; with NVP-TAE684 + Vorinostat (first compound 0.6325 µM), 0.336; with NVP-TAE684 + Vorinostat (first compound 2 µM) it was 0.186; in the test with NVP-TAE684 + Alpelisib (first compound 0.2 µM) it was 0.961; with NVP-TAE684 + Alpelisib (first compound 0.6325 µM) it was 0.915; in the test with NVP-TAE684 + Alpelisib (first compound 2 µM) it was 0.213.
